In USRE40793E1, “Bicyclic benzamides of 3-or 4-substituted 4-(aminomethyl)-piperidine derivatives” (Janssen Pharmaceutica, N.V., priority 1997, dated 2009):

System: conscious dogs
Assay: Gastric emptying of an acaloric liquid test meal delayed by administration of lidamidine, in conscious dogs
Assay type: in vivo, beagle dogs
Details: conscious dog; for ΔT/T^b (acceleration of gastric emptying of a liquid meal delayed by lidamidine) / change in vivo at 0.0025 mg/kg: dose 0.0025 mg/kg; for ΔT/T^a (acceleration of gastric emptying of a liquid meal delayed by lidamidine) / change in vivo at 0.01 mg/kg: dose 0.01 mg/kg; for change in vivo at 0.0025 mg/kg / change in vivo at 0.01 mg/kg: Canis lupus familiaris; for change in vivo at 0.0025 mg/kg: read-out: ΔT/T^b (acceleration of gastric emptying of a liquid meal delayed by lidamidine); for change in vivo at 0.01 mg/kg: read-out: ΔT/T^a (acceleration of gastric emptying of a liquid meal delayed by lidamidine)
Source text: C. Pharmacological Examples C.1. Gastric Emptying of an Acaloric Liquid Test Meal Delayed by Administration of Lidamidine, in Conscious Dogs
Female beagle dogs, weighing 7-14 kg, were trained to stand quietly in Pavlov frames. They were implanted with a gastric cannula under general anesthesia and aseptic precautions. After a medium laparatomy, an incision was made through the gastric wall in the longitudinal direction between the greater and the lesser curve, 2 cm above the nerves of Latarjet. The cannula was secured to the gastric wall by means of a double purse string suture and brought out via a stab wound at the left quadrant of the hypochondrium. Dogs were allowed a recovery period of at least two weeks. Experiments were started after a fasting period of 24 hours, during which water was available ad libitum. At the beginning of the experiment, the cannula was opened in order to remove any gastric juice or food remnants.
The stomach was cleansed with 40 to 50 ml lukewarm water. The test compound was administered I.V. (in a volume ≦3 ml via the vena cephalica), S.C. (in a volume ≦3 ml) or P.O. (in a volume of 1 ml/kg body weight, applied intragastrically via the cannula with a device that filled the lumen of the cannula: after injection of the test compound; 5 ml NaCl 0.9% was injected in order to correct for the dead space in the injection system). Immediately after administration of the test compound or its solvent, lidamidine (0.63 mg/kg was administered subcutaneously. 30 min later, the cannula was opened to determine the amount of fluid present in the stomach, promptly followed by reintroduction of the fluid. Then the test meal was administered via the cannula. This test meal consisted of 250 ml distilled water containing glucose (5 g/l) as a marker. The cannula remained closed for 30 min, whereafter the gastric contents were drained from the stomach to measure total volume (t=30 min). For later analysis 1 ml of the gastric contents was taken, promptly followed by reintroduction of the rest volume into the stomach. This sequence was repeated 4 times with 30 min intervals (t=60, 90, 120, 150 min).
In the 1 ml samples of the gastric contents, the glucose concentrations were measured on a Hitachi 717 automatic analyzer by the hexokinase method (Schmidt, 1961).
Curves were fitted to the measurement points (glucose versus time) using weighed non-linear regression analysis. Gastric emptying was quantified as the time needed to empty 70% of the meal (t 70%). The control emptying time was calculated as the mean t 70% of the last 5 solvent experiments of the same dog. Acceleration of delayed gastric emptying (Δt) was calculated as the time difference between t 70% compound and t 70% solvent. To correct for variations in emptying rate between dogs, Δt was expressed as % of t 70% solvent (Schuurkes et al. 1992)).

[1] = compounds, Δt = t 70% compound minus t 70% solvent, relative to t 70% solvent

SMILES	ΔT/T^b (acceleration of gastric emptying of a liquid meal delayed by lidamidine) [1]	ΔT/T^a (acceleration of gastric emptying of a liquid meal delayed by lidamidine) [1]	further results
CCCCN1CC[C@@H](CNC(=O)c2cc(Cl)c(N)c3c2OCC3)[C@@H](O)C1 (racemic) [Compound 1]	−0.23	−0.20	–
Nc1c(Cl)cc(C(=O)NC[C@@H]2CCN(CCOCCO)C[C@H]2O)c2c1CCO2 (racemic) [Compound 17]	−0.30	0.06	ΔT/T^b (acceleration of gastric emptying of a liquid meal delayed by lidamidine) (intermediates): −0.18; ΔT/T^a (acceleration of gastric emptying of a liquid meal delayed by lidamidine) (intermediates): −0.28
N#CCCCN1CC[C@@H](CNC(=O)c2cc(Cl)c(N)c3c2OCC3)[C@H](O)C1 (racemic) [Compound 18]	−0.47	−0.57	–
CC(C)OCCCN1CC[C@@H](CNC(=O)c2cc(Cl)c(N)c3c2OCC3)[C@H](O)C1 (racemic) [Compound 19]	−0.30	−0.78	–
CS(=O)(=O)NCCN1CC[C@@H](CNC(=O)c2cc(Cl)c(N)c3c2OCC3)[C@H](O)C1 (racemic) [Compound 20]	−0.20	−0.28	–
CCCCN1CC[C@@H](CNC(=O)c2cc(Cl)c(N)c3c2OCC3)[C@H](OC)C1 (racemic) [Compound 29]	−0.32	−0.51	–
CCCCN1CC[C@@H](CNC(=O)c2cc(Cl)c(N)c3c2OC(C)(C)C3)[C@H](O)C1 (racemic) [Compound 36]	–	−0.01	–
COCCCN1CC[C@@H](CNC(=O)c2cc(Cl)c(N)c3c2OC(C)(C)C3)[C@H](O)C1.O=C(O)C(=O)O (racemic) [Compound 37]	−0.41	−0.62	–
CC(C)OCCCN1CC[C@@H](CNC(=O)c2cc(Cl)c(N)c3c2OC(C)(C)C3)[C@H](O)C1.O=C(O)/C=C\C(=O)O (racemic) [Compound 42]	–	−0.12	–
CC(=O)CCCN1CC[C@@H](CNC(=O)c2cc(Cl)c(N)c3c2OC(C)(C)C3)[C@H](O)C1 (racemic) [Compound 49]	−0.19	−0.28	–
CCCCN1CC[C@@H](CNC(=O)c2cc(Cl)c(N)c3c2OCC3)[C@H](O)C1 (relative stereo) [Compound 2, trans-4-amino-N-[(1-butyl-3-hydroxy-4-piperidinyl)methyl]-5-chloro-2,3-dihydro-7-benzofurancarboxamide]	–	–	change in vivo at 0.0025 mg/kg [1]: -61%; change in vivo at 0.01 mg/kg [1]: -34%
COCCCN1CC[C@@H](CNC(=O)c2cc(Cl)c(N)c3c2OCC3)[C@H](O)C1 (relative stereo) [Compound 3, trans-4-amino-5-chloro-2,3-dihydro-N-[[3-hydroxy-1-(3-methoxypropyl)-4-piperidinyl]methyl]-7-benzofurancarboxamide]	–	–	change in vivo at 0.0025 mg/kg [1]: -51%; change in vivo at 0.01 mg/kg [1]: -73%
CC(=O)CCCN1CC[C@H](CNC(=O)c2cc(Cl)c(N)c3c2OCC3)[C@H](O)C1 (relative stereo) [Compound 4, (cis)-4-amino-5-chloro-2,3-dihydro-N-[[3-hydroxy-1-(4-oxopentyl)-4-piperidinyl]methyl]-7-benzofurancarboxamide]	–	–	change in vivo at 0.0025 mg/kg [1]: -21%; change in vivo at 0.01 mg/kg [1]: -8%
CC(=O)CCCN1CC[C@@H](CNC(=O)c2cc(Cl)c(N)c3c2OCC3)[C@H](O)C1 (relative stereo) [Compound 5, trans-4-amino-5-chloro-2,3-dihydro-N-[[3-hydroxy-1-(4-oxopentyl)-4-piperidinyl]methyl]-7-benzofurancarboxamide]	–	–	change in vivo at 0.0025 mg/kg [1]: -57%; change in vivo at 0.01 mg/kg [1]: -36%
CO[C@@H]1CN(CCCC(C)=O)CC[C@H]1CNC(=O)c1cc(Cl)c(N)c2c1OCC2 (relative stereo) [Compound 28, trans-4-amino-5-chloro-2,3-dihydro-N-[[3-methoxy-1-(4-oxopentyl)-4-piperidinyl]methyl]-7-benzofurancarboxamide]	–	–	change in vivo at 0.0025 mg/kg [1]: -42%; change in vivo at 0.01 mg/kg [1]: -56%
COCCCN1CC[C@@H](CNC(=O)c2cc(Cl)c(N)c3c2OCC3)[C@H](OC)C1 (relative stereo) [Compound 30, trans-4-amino-5-chloro-2,3-dihydro-N-[[3-methoxy-1-(3-methoxypropyl)-4-piperidinyl]methyl]-7-benzofurancarboxamide]	–	–	change in vivo at 0.0025 mg/kg [1]: -55%; change in vivo at 0.01 mg/kg [1]: -59%
COCCCN1CC[C@@H](CNC(=O)c2cc(Cl)c(N)c3c2OC(C)(C)C3)[C@H](O)C1 (relative stereo) [Compound 39, trans-(−)-4-amino-5-chloro-2,3-dihydro-N-[[3-hydroxy-1-(3-methoxypropyl)-4-piperidinyl]methyl]-2,2-dimethyl-7-benzofurancarboxamide]	−0.43	−0.53	–
COCCCN1CC[C@@H](CNC(=O)c2cc(Cl)c(N)c3c2OC(C)(C)C3)[C@H](O)C1 (relative stereo) [Compound 40, trans-(+)-4-amino-5-chloro-2,3-dihydro-N-[[3-hydroxy-1-(3-methoxypropyl)-4-piperidinyl]methyl]-2,2-dimethyl-7-benzofurancarboxamide]	−0.17	−0.22	–
CCCCN1CC[C@@H](CNC(=O)c2cc(Cl)c(N)c3c2OC(C)(C)C3)[C@H](OC)C1.O=C(O)C(=O)O (relative stereo) [Compound 51]	–	−0.45	–
CO[C@@H]1CN(CCCC(C)=O)CC[C@H]1CNC(=O)c1cc(Cl)c(N)c2c1OC(C)(C)C2.O=C(O)C(=O)O (relative stereo) [Compound 52]	–	−0.18	–
CCCCN1CC[C@@H](CNC(=O)c2cc(Cl)c(N)c3c2OCCO3)[C@@H](O)C1.Cl.O (relative stereo) [Compound 54]	0.04	−0.28	–
CCCCN1CC[C@@H](CNC(=O)c2cc(Cl)c(N)c3c2OCCO3)[C@H](O)C1 (relative stereo) [Compound 55, (trans)-8-amino-N-[(1-butyl-3-hydroxy-4-piperidinyl)methyl]-7-chloro-2,3-dihydro-1,4-benzodioxin-5-carboxamide]	–	–	change in vivo at 0.0025 mg/kg [1]: -18%; change in vivo at 0.01 mg/kg [1]: -29%
COCCCN1CC[C@@H](CNC(=O)c2cc(Cl)c(N)c3c2OCCO3)[C@H](O)C1 (relative stereo) [Compound 57]	−0.03	−0.10	–
CC(=O)CCCN1CC[C@@H](CNC(=O)c2cc(Cl)c(N)c3c2OCCO3)[C@@H](O)C1 (relative stereo) [Compound 58]	−0.20	0.09	–
CC(=O)CCCN1CC[C@@H](CNC(=O)c2cc(Cl)c(N)c3c2OCCO3)[C@H](O)C1.O (relative stereo) [Compound 59]	−0.15	−0.13	–
CCCCN1CC[C@@H](CNC(=O)c2cc(Cl)c(N)c3c2OCCCO3)[C@H](O)C1.Cl (relative stereo) [Compound 65]	–	−0.07	–
Nc1c(Cl)cc(C(=O)NC[C@@H]2CCN(CCCO)C[C@H]2O)c2c1CCCO2.O.O (relative stereo) [Compound 74]	–	−0.51	–
